The record followed here is PubChem BioAssay AID248 (DTP/NCI, 2004).

Where “and” joins values, the source holds several entries; their conditions need not be identical. Equal values may be shown once. Toxic doses and inconclusive results are not listed.

This experiment concerns L1210 leukemia ip in BDF1 mice, survival T/C. Description: NCI In Vivo Anticancer Drug Screen. Data for tumor model L1210 Leukemia (intraperitoneal) in B6D2F1 (BDF1) mice. As to conditions: endpoint: mean survival time, higher = longer survival. The method in brief:
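Each compound was tested against a transplantable tumor grown in mice. The endpoint was survival, with treated animals benchmarked against vehicle controls as a simple ratio.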

Setting [1] is: dose: 50.0 mg/kg/injection, schedule: Q01DX009 (ip), vehicle: saline.
[2] abbreviates: dose: 25.0 mg/kg/injection, schedule: Q04DX003 (ip), vehicle: saline.

Regarding `CC1=C(c2ccccc2)C2(c3ccccc3)C3(C)C(=O)C(C)(C(c4ccccc4)C3c3ccccc3)C2(C)C1=O` (stereo unspecified), the T/C is 97 % of control (dose: 100.0 mg/kg/injection, schedule: Q04DX002 (ip), vehicle: gum acacia); 91 % of control (dose: 200.0 mg/kg/injection, schedule: Q04DX002 (ip), vehicle: gum acacia); 94 % of control (dose: 400.0 mg/kg/injection, schedule: Q04DX002 (ip), vehicle: gum acacia).

With `CC(C)(N)CNC(C)(C)CO`, the T/C is 102 % of control under setting [1] and 102 % of control (dose: 100.0 mg/kg/injection, schedule: Q01DX009 (ip), vehicle: saline).

For the compound `FC(F)(F)c1nc(S)cc(=S)[nH]1`, the T/C (dose: 50.0 mg/kg/injection, schedule: Q01DX Z (ip), vehicle: methylcellulose (MC)) is 96 % of control and the T/C (dose: 100.0 mg/kg/injection, schedule: Q01DX Z (ip), vehicle: methylcellulose (MC)) was 93 % of control.

On to `N#CC(c1ccc(N)cc1)c1ccc(F)cc1` (stereo unspecified), for which the T/C reads like this: (dose: 50.0 mg/kg/injection, schedule: Q01DX001 (ip), vehicle: saline) 97 % of control; (dose: 100.0 mg/kg/injection, schedule: Q01DX001 (ip), vehicle: saline) 97 % of control; (dose: 200.0 mg/kg/injection, schedule: Q01DX001 (ip), vehicle: saline) 97 % of control.

As to `O=C(O)c1ccccc1Br`, the T/C was 96 % of control (dose: 100.0 mg/kg/injection, schedule: Q04DX002 (ip), vehicle: saline with Tween-80) and 93 % of control (dose: 200.0 mg/kg/injection, schedule: Q04DX002 (ip), vehicle: saline with Tween-80).

On to `O=c1cc2oc3c(O)c(O)ccc3c3c4ccccc4c(=O)c(c1)c23`, for which the T/C runs as follows: (dose: 12.5 mg/kg/injection, schedule: Q01DX009 (ip), vehicle: saline) 92 % of control; (dose: 25.0 mg/kg/injection, schedule: Q01DX009 (ip), vehicle: saline) 96 % of control; under setting [1], 103 % of control and 91 % of control; (dose: 100.0 mg/kg/injection, schedule: Q04DX003 (ip), vehicle: saline) 96 % of control; (dose: 200.0 mg/kg/injection, schedule: Q04DX003 (ip), vehicle: saline) 102 % of control.

Turning to `OCCN1CCN(CCCN2c3ccccc3Oc3ccc(C(F)(F)F)cc32)CC1`, the T/C reads like this: under setting [2], 92 % of control; (dose: 50.0 mg/kg/injection, schedule: Q04DX003 (ip), vehicle: saline) 106 % of control.

Regarding `CCCNC(C)(C)C(SSS)c1cccs1` (stereo unspecified), the T/C is 102 % of control (dose: 100.0 mg/kg/injection, schedule: Q04DX003 (ip), vehicle: alcohol) and 101 % of control (dose: 200.0 mg/kg/injection, schedule: Q04DX003 (ip), vehicle: alcohol).

For the compound `O=[N+]([O-])c1ccc(Cl)c(I)c1`, the T/C by setting is: (dose: 12.5 mg/kg/injection, schedule: Q01DX009 (ip), vehicle: saline with Tween-80) 94 % of control; (dose: 25.0 mg/kg/injection, schedule: Q01DX009 (ip), vehicle: saline with Tween-80) 94 % of control; (dose: 50.0 mg/kg/injection, schedule: Q01DX009 (ip), vehicle: saline + alcohol) 92 % of control; (dose: 50.0 mg/kg/injection, schedule: Q01DX009 (ip), vehicle: saline with Tween-80) 94 % of control; (dose: 200.0 mg/kg/injection, schedule: Q01DX009 (ip), vehicle: saline + alcohol) 92 % of control.

For `O=S(=O)(CS(=O)(=O)c1ccccc1)c1ccccc1`, the T/C (dose: 75.0 mg/kg/injection, schedule: Q01DX009 (ip), vehicle: Klucel (hydroxypropylcellulose) (HPC)) was 102 % of control; the T/C (dose: 150.0 mg/kg/injection, schedule: Q01DX009 (ip), vehicle: Klucel (hydroxypropylcellulose) (HPC)) is 98 % of control; the T/C (dose: 300.0 mg/kg/injection, schedule: Q01DX009 (ip), vehicle: Klucel (hydroxypropylcellulose) (HPC)) is 95 % of control.

With `O=S(=O)(c1ccccc1)C(Br)c1ccc(F)cc1` (stereo unspecified), the T/C reads like this: (dose: 100.0 mg/kg/injection, schedule: Q04DX002 (ip), vehicle: Klucel (hydroxypropylcellulose) (HPC)) 97 % of control; (dose: 200.0 mg/kg/injection, schedule: Q04DX002 (ip), vehicle: Klucel (hydroxypropylcellulose) (HPC)) 105 % of control; (dose: 400.0 mg/kg/injection, schedule: Q04DX002 (ip), vehicle: Klucel (hydroxypropylcellulose) (HPC)) 101 % of control.

Turning to `CC(=O)Nc1ccc(S(=O)(=O)SC(F)(F)F)cc1`, the T/C is, setting by setting: (dose: 5.0 mg/kg/injection, schedule: Q01DX001 (ip), vehicle: saline) 97 % of control; (dose: 10.0 mg/kg/injection, schedule: Q01DX001 (ip), vehicle: saline) 98 % of control; (dose: 20.0 mg/kg/injection, schedule: Q01DX001 (ip), vehicle: saline) 101 % of control.

For the compound `O=C(Nc1coc2ccc(Cl)cc12)C1CC1`, the T/C by setting is: (dose: 100.0 mg/kg/injection, schedule: Q01DX009 (ip), vehicle: saline with Tween-80) 86 % of control; (dose: 200.0 mg/kg/injection, schedule: Q01DX009 (ip), vehicle: saline with Tween-80) 99 % of control.

Regarding `CCOC(=O)NCCCCN(C(C)=O)n1cnc2c(SC)ncnc21`, the T/C was 100 % of control (dose: 12.5 mg/kg/injection, schedule: Q04DX002 (ip), vehicle: saline with Tween-80); 94 % of control (dose: 25.0 mg/kg/injection, schedule: Q04DX002 (ip), vehicle: saline with Tween-80); 97 % of control (dose: 50.0 mg/kg/injection, schedule: Q04DX002 (ip), vehicle: saline with Tween-80).

Take `O=C(O)c1ccccc1CC(O)(c1ccccc1)C(O)(Cc1ccccc1C(=O)O)c1ccccc1` (stereo unspecified): the T/C runs as follows: (dose: 100.0 mg/kg/injection, schedule: Q01DX001 (ip), vehicle: carboxymethylcellulose (CMC)) 94 % of control; (dose: 200.0 mg/kg/injection, schedule: Q01DX001 (ip), vehicle: carboxymethylcellulose (CMC)) 102 % of control; (dose: 400.0 mg/kg/injection, schedule: Q01DX001 (ip), vehicle: carboxymethylcellulose (CMC)) 96 % of control.

Turning to `O=[N+]([O-])c1ccc2scc3c4ccccc4nc-3c2c1`, the T/C by setting is: (dose: 4.37 mg/kg/injection, schedule: Q01DX009 (ip), vehicle: Klucel (hydroxypropylcellulose) (HPC)) 95 % of control; (dose: 8.75 mg/kg/injection, schedule: Q01DX009 (ip), vehicle: Klucel (hydroxypropylcellulose) (HPC)) 101 % of control; (dose: 12.5 mg/kg/injection, schedule: Q04DX003 (ip), vehicle: saline) 101 % of control; (dose: 17.5 mg/kg/injection, schedule: Q01DX009 (ip), vehicle: Klucel (hydroxypropylcellulose) (HPC)) 89 % of control; under setting [2], 101 % of control.

On to `O=S(=O)(O)Sc1ncnc2nc[nH]c12`, for which the T/C was 162 % of control (dose: 125.0 mg/kg/injection, schedule: Q01DX009 (ip), vehicle: water); 159 % of control (dose: 250.0 mg/kg/injection, schedule: Q01DX009 (ip), vehicle: water); 153 % of control (dose: 250.0 mg/kg/injection, schedule: Q04DX003 (ip), vehicle: water).

In the case of `CCCCOC(=O)C(C)OC(=O)Nc1ccccc1` (stereo unspecified), the T/C is, setting by setting: (dose: 100.0 mg/kg/injection, schedule: Q01DX009 (sc), vehicle: olive oil, sesame oil, peanut oil) 95 % of control; (dose: 100.0 mg/kg/injection, schedule: Q04DX003 (sc), vehicle: olive oil, sesame oil, peanut oil) 100 % of control; (dose: 200.0 mg/kg/injection, schedule: Q01DX009 (sc), vehicle: olive oil, sesame oil, peanut oil) 92 % of control; (dose: 200.0 mg/kg/injection, schedule: Q04DX003 (sc), vehicle: olive oil, sesame oil, peanut oil) 105 % of control; (dose: 400.0 mg/kg/injection, schedule: Q01DX009 (sc), vehicle: olive oil, sesame oil, peanut oil) 92 % of control; (dose: 400.0 mg/kg/injection, schedule: Q04DX003 (sc), vehicle: olive oil, sesame oil, peanut oil) 115 % of control.

On to `CN(N=Nc1ccccc1C(=O)NN)C1CCCCC1`, for which the T/C (dose: 100.0 mg/kg/injection, schedule: Q01DX009 (ip), vehicle: other) is 117 % of control and the T/C (dose: 200.0 mg/kg/injection, schedule: Q01DX009 (ip), vehicle: other) was 114 % of control.

Consider `CC(C)OC(=O)C1(N)CCCC1`, for which the T/C (dose: 25.0 mg/kg/injection, schedule: Q01DX Z (ip), vehicle: carboxymethylcellulose (CMC)) was 105 % of control; the T/C (dose: 30.0 mg/kg/injection, schedule: Q01DX Z (ip), vehicle: saline) is 113 % of control; the T/C (dose: 40.0 mg/kg/injection, schedule: Q01DX Z (ip), vehicle: other) is 119 % of control; the T/C (dose: 45.0 mg/kg/injection, schedule: Q01DX Z (ip), vehicle: saline) is 118 % of control; the T/C (dose: 50.0 mg/kg/injection, schedule: Q01DX Z (ip), vehicle: carboxymethylcellulose (CMC)) was 122 % of control; the T/C (dose: 150.0 mg/kg/injection, schedule: Q01DX Z (ip), vehicle: saline) was 89 % of control. The T/C (dose: 200.0 mg/kg/injection, schedule: Q01DX Z (ip), vehicle: carboxymethylcellulose (CMC)) was 88 % of control.
